Values joined by “and” are separate entries in the source; they are usually repeats but may differ in a detail not shown here. Equal entries are not always repeated. Inconclusive results and toxic doses are left out.
Tested on: L1210 leukemia ip in BDF1 mice, survival T/C
Test: NCI In Vivo Anticancer Drug Screen. Data for tumor model L1210 Leukemia (intraperitoneal) in B6D2F1 (BDF1) mice
Settings: endpoint: mean survival time, higher = longer survival
Method in brief: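 Value reflects the ratio of survival in compound-treated mice to survival in vehicle-treated controls, with both groups carrying the same transplanted tumor.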

[1] = dose: 100.0 mg/kg/injection, schedule: Q04DX003 (ip), vehicle: Klucel (hydroxypropylcellulose) (HPC)
[2] = dose: 200.0 mg/kg/injection, schedule: Q04DX003 (ip), vehicle: Klucel (hydroxypropylcellulose) (HPC)
[3] = dose: 400.0 mg/kg/injection, schedule: Q04DX003 (ip), vehicle: Klucel (hydroxypropylcellulose) (HPC)
[4] = dose: 100.0 mg/kg/injection, schedule: Q01DX009 (ip), vehicle: Klucel (hydroxypropylcellulose) (HPC)
[5] = dose: 200.0 mg/kg/injection, schedule: Q01DX009 (ip), vehicle: Klucel (hydroxypropylcellulose) (HPC)
[6] = dose: 400.0 mg/kg/injection, schedule: Q01DX009 (ip), vehicle: Klucel (hydroxypropylcellulose) (HPC)
[7] = dose: 50.0 mg/kg/injection, schedule: Q01DX009 (ip), vehicle: saline with Tween-80
[8] = dose: 100.0 mg/kg/injection, schedule: Q01DX009 (ip), vehicle: saline with Tween-80
[9] = dose: 100.0 mg/kg/injection, schedule: Q04DX003 (ip), vehicle: saline with Tween-80
[10] = dose: 200.0 mg/kg/injection, schedule: Q04DX003 (ip), vehicle: saline with Tween-80
[11] = dose: 100.0 mg/kg/injection, schedule: Q01DX001 (ip), vehicle: saline
[12] = dose: 200.0 mg/kg/injection, schedule: Q01DX001 (ip), vehicle: saline
[13] = dose: 400.0 mg/kg/injection, schedule: Q01DX001 (ip), vehicle: saline
[14] = dose: 50.0 mg/kg/injection, schedule: Q01DX001 (ip), vehicle: saline

## C/C(=C\Cl)COC1CCCCO1 (stereo not given)
dose: 100.0 mg/kg/injection, schedule: Q01DX009 (ip), vehicle: acetone
  T/C: 95 % of control
dose: 100.0 mg/kg/injection, schedule: Q04DX003 (ip), vehicle: acetone
  T/C: 101 % of control
dose: 200.0 mg/kg/injection, schedule: Q01DX009 (ip), vehicle: acetone
  T/C: 95 % of control
dose: 200.0 mg/kg/injection, schedule: Q04DX003 (ip), vehicle: acetone
  T/C: 101 % of control
dose: 400.0 mg/kg/injection, schedule: Q04DX003 (ip), vehicle: acetone
  T/C: 101 % of control

## CC1C(C)N1P(I)(c1ccccc1)(c1ccccc1)c1ccccc1 (stereo not given)
dose: 2.5 mg/kg/injection, schedule: Q01DX001 (ip), vehicle: carboxymethylcellulose (CMC)
  T/C: 115 % of control

## C[Si](C)(C#CC1(O)CCCCC1)CCl
[1]
  T/C: 107 % of control
[2]
  T/C: 106 % of control
[3]
  T/C: 103 % of control

## NC(N)=N/N=C(\C(=N\N=C(N)N)c1ccccc1)c1ccccc1
dose: 60.0 mg/kg/injection, schedule: Q01DX Z (oral), vehicle: methylcellulose (MC)
  T/C: 98 % of control
dose: 120.0 mg/kg/injection, schedule: Q01DX Z (oral), vehicle: methylcellulose (MC)
  T/C: 96 % of control
dose: 240.0 mg/kg/injection, schedule: Q01DX Z (oral), vehicle: methylcellulose (MC)
  T/C: 94 % of control
dose: 480.0 mg/kg/injection, schedule: Q01DX Z (oral), vehicle: methylcellulose (MC)
  T/C: 91 % of control

## O=[N+]([O-])c1cc([N+](=O)[O-])c2nn(-c3ccccc3)[n+]([O-])c2c1
[1]
  T/C: 101 % of control
[2]
  T/C: 97 % of control
[3]
  T/C: 98 % of control

## CCCC(=O)OCC1OC(n2ccc(N)nc2=O)C(O)C1OC(=O)CCC (stereo not given)
dose: 60.0 mg/kg/injection, schedule: Q01DX005 (ip), vehicle: Klucel (hydroxypropylcellulose) (HPC)
  T/C: 183 % of control
dose: 90.0 mg/kg/injection, schedule: Q01DX005 (ip), vehicle: Klucel (hydroxypropylcellulose) (HPC)
  T/C: 152 % of control
dose: 134.0 mg/kg/injection, schedule: Q01DX005 (ip), vehicle: Klucel (hydroxypropylcellulose) (HPC)
  T/C: 158 % of control
dose: 200.0 mg/kg/injection, schedule: Q01DX005 (ip), vehicle: Klucel (hydroxypropylcellulose) (HPC)
  T/C: 162 % of control and 170 % of control

## Cc1cc(CC(=S)[S-])[n+](C)c(CC(=S)S)c1
dose: 87.5 mg/kg/injection, schedule: Q01DX009 (ip), vehicle: Klucel (hydroxypropylcellulose) (HPC)
  T/C: 105 % of control
dose: 175.0 mg/kg/injection, schedule: Q01DX009 (ip), vehicle: Klucel (hydroxypropylcellulose) (HPC)
  T/C: 101 % of control

## CNC(=O)C1C(c2ccccc2)C1c1ccccc1 (stereo not given)
dose: 100.0 mg/kg/injection, schedule: Q04DX002 (ip), vehicle: Klucel (hydroxypropylcellulose) (HPC)
  T/C: 102 % of control
dose: 200.0 mg/kg/injection, schedule: Q04DX002 (ip), vehicle: Klucel (hydroxypropylcellulose) (HPC)
  T/C: 97 % of control
dose: 400.0 mg/kg/injection, schedule: Q04DX002 (ip), vehicle: Klucel (hydroxypropylcellulose) (HPC)
  T/C: 94 % of control

## Cc1cc(Cl)ccc1NC(=O)c1ccc(Cl)cc1Cl
[4]
  T/C: 96 % of control
[1]
  T/C: 95 % of control
[5]
  T/C: 91 % of control
[2]
  T/C: 92 % of control
[6]
  T/C: 94 % of control
[3]
  T/C: 88 % of control

## N#CCCCCN1C(=O)c2ccccc2C1=O
[7]
  T/C: 94 % of control
[8]
  T/C: 94 % of control
[9]
  T/C: 98 % of control
[10]
  T/C: 97 % of control

## O=C1C2CCN(CC2)C1Cn1cnc2c(Cl)ncnc21 (stereo not given)
dose: 100.0 mg/kg/injection, schedule: Q01DX001 (ip), vehicle: Klucel (hydroxypropylcellulose) (HPC)
  T/C: 95 % of control
dose: 200.0 mg/kg/injection, schedule: Q01DX001 (ip), vehicle: Klucel (hydroxypropylcellulose) (HPC)
  T/C: 98 % of control

## CCCOC(=O)COc1ccc(Cl)cc1C
[1]
  T/C: 96 % of control
[2]
  T/C: 96 % of control
[3]
  T/C: 91 % of control

## COC(=O)c1cc([N+](=O)[O-])c(C)s1
[11]
  T/C: 100 % of control
[12]
  T/C: 100 % of control
[13]
  T/C: 96 % of control

## Cc1ccc(SC(=O)CCl)cc1
dose: 66.0 mg/kg/injection, schedule: Q01DX009 (ip), vehicle: gum acacia
  T/C: 93 % of control
dose: 100.0 mg/kg/injection, schedule: Q01DX009 (ip), vehicle: gum acacia
  T/C: 90 % of control
dose: 100.0 mg/kg/injection, schedule: Q04DX003 (ip), vehicle: gum acacia
  T/C: 102 % of control
dose: 150.0 mg/kg/injection, schedule: Q01DX009 (ip), vehicle: gum acacia
  T/C: 90 % of control
dose: 200.0 mg/kg/injection, schedule: Q01DX009 (ip), vehicle: gum acacia
  T/C: 97 % of control
dose: 200.0 mg/kg/injection, schedule: Q04DX003 (ip), vehicle: gum acacia
  T/C: 96 % of control
dose: 400.0 mg/kg/injection, schedule: Q04DX003 (ip), vehicle: gum acacia
  T/C: 94 % of control

## Clc1ccccc1C=NCC1CCC(CN=Cc2ccccc2Cl)CC1 (stereo not given)
[7]
  T/C: 92 % of control and 100 % of control
dose: 100.0 mg/kg/injection, schedule: Q01DX001 (ip), vehicle: saline with Tween-80
  T/C: 106 % of control
[8]
  T/C: 92 % of control
dose: 100.0 mg/kg/injection, schedule: Q04DX002 (ip), vehicle: saline with Tween-80
  T/C: 104 % of control and 88 % of control
dose: 200.0 mg/kg/injection, schedule: Q01DX001 (ip), vehicle: saline with Tween-80
  T/C: 93 % of control
dose: 200.0 mg/kg/injection, schedule: Q01DX009 (ip), vehicle: saline with Tween-80
  T/C: 90 % of control
dose: 200.0 mg/kg/injection, schedule: Q04DX002 (ip), vehicle: saline with Tween-80
  T/C: 100 % of control
dose: 400.0 mg/kg/injection, schedule: Q01DX001 (ip), vehicle: saline with Tween-80
  T/C: 98 % of control
dose: 400.0 mg/kg/injection, schedule: Q04DX002 (ip), vehicle: saline with Tween-80
  T/C: 89 % of control

## CC(CN(CCNc1ccccc1)c1ccccc1)c1ccccc1 (stereo not given)
dose: 25.0 mg/kg/injection, schedule: Q01DX009 (ip), vehicle: other
  T/C: 102 % of control
dose: 50.0 mg/kg/injection, schedule: Q01DX009 (ip), vehicle: other
  T/C: 105 % of control
dose: 100.0 mg/kg/injection, schedule: Q01DX009 (ip), vehicle: other
  T/C: 100 % of control
dose: 100.0 mg/kg/injection, schedule: Q04DX003 (ip), vehicle: saline
  T/C: 100 % of control
dose: 200.0 mg/kg/injection, schedule: Q01DX009 (ip), vehicle: other
  T/C: 104 % of control
dose: 200.0 mg/kg/injection, schedule: Q04DX003 (ip), vehicle: saline
  T/C: 92 % of control
dose: 300.0 mg/kg/injection, schedule: Q01DX009 (ip), vehicle: other
  T/C: 96 % of control
dose: 400.0 mg/kg/injection, schedule: Q04DX003 (ip), vehicle: saline
  T/C: 86 % of control

## CCSC(SCC)C(C)=O
[14]
  T/C: 92 % of control
[11]
  T/C: 108 % of control
[12]
  T/C: 94 % of control
[13]
  T/C: 89 % of control

## CCCCN(Cc1ccccc1)C(=O)NC(C)(C)C
[4]
  T/C: 97 % of control
[5]
  T/C: 102 % of control
[6]
  T/C: 97 % of control

## Cc1ccc(S(=O)(=O)OCC(OS(=O)(=O)c2ccc(C)cc2)C2OCOC(COS(=O)(=O)c3ccc(C)cc3)C2OS(=O)(=O)c2ccc(C)cc2)cc1 (stereo not given)
[9]
  T/C: 94 % of control
[10]
  T/C: 87 % of control
dose: 400.0 mg/kg/injection, schedule: Q04DX003 (ip), vehicle: saline with Tween-80
  T/C: 100 % of control

## CC(C(O)c1ccc2cc(Br)c3ccccc3c2c1)N(C)C (stereo not given)
dose: 55.0 mg/kg/injection, schedule: Q01DX Z (ip), vehicle: methylcellulose (MC)
  T/C: 101 % of control
dose: 83.0 mg/kg/injection, schedule: Q01DX Z (ip), vehicle: methylcellulose (MC)
  T/C: 101 % of control
dose: 125.0 mg/kg/injection, schedule: Q01DX Z (ip), vehicle: methylcellulose (MC)
  T/C: 101 % of control

## CC1(C)CN(Cc2ccccc2)C(C)(C)CN1N
dose: 6.25 mg/kg/injection, schedule: Q01DX009 (ip), vehicle: saline with Tween-80
  T/C: 96 % of control
dose: 12.5 mg/kg/injection, schedule: Q01DX009 (ip), vehicle: saline with Tween-80
  T/C: 100 % of control
dose: 25.0 mg/kg/injection, schedule: Q01DX009 (ip), vehicle: saline with Tween-80
  T/C: 102 % of control
dose: 25.0 mg/kg/injection, schedule: Q04DX003 (ip), vehicle: saline with Tween-80
  T/C: 105 % of control
dose: 50.0 mg/kg/injection, schedule: Q04DX003 (ip), vehicle: saline with Tween-80
  T/C: 102 % of control
[9]
  T/C: 113 % of control

## O=C(CCCC(=O)N/N=C/c1ccc(Cl)cc1Cl)N/N=C\c1ccc(Cl)cc1Cl
[14]
  T/C: 97 % of control
[11]
  T/C: 97 % of control
[12]
  T/C: 93 % of control
[13]
  T/C: 97 % of control
